Active and inactive are the calls of the source. No cut-off for these calls is given here.
Key:
[1] = Unbound fraction in mouse; format: ADME, organism-based; details: in vivo
[2] = Half life in rat at 10 mg/kg, ip; format: ADME, organism-based; details: in vivo
[3] = Tmax in rat at 10 mg/kg, ip; format: ADME, organism-based; details: in vivo
[4] = biological target: T1, Metabotropic glutamate receptor 2 (Homo sapiens, UniProt Q14416); assay: Displacement of [3H]-LY459477 from human mGlu2 receptor expressed in hamster AV12 cell membranes co-expressing human EAAT1 after 90 mins by liquid scintillation counting method
[5] = biological target: T1, Metabotropic glutamate receptor 2; assay: Antagonist activity at recombinant human mGlu2 receptor expressed in hamster AV12 cells assessed as inhibition of DCG-4-inhibited forskolin-stimulated cAMP formation up to 25 uM after 20 min by HTRF assay relative to control; format: functional, cell-based
[6] = biological target: T2, Metabotropic glutamate receptor 3 (Homo sapiens, UniProt Q14832); assay: Antagonist activity at recombinant human mGlu3 receptor expressed in hamster AV12 cells assessed as inhibition of DCG-4-inhibited forskolin-stimulated cAMP formation up to 25 uM after 20 mins by HTRF assay relative to control; format: functional, cell-based
[7] = biological target: T2, Metabotropic glutamate receptor 3; assay: Agonist activity at recombinant human mGlu3 receptor expressed in hamster AV12 cells co-expressing human EAAT1 assessed as increase in forskolin-stimulated cAMP formation up to 25 uM after 20 mins by HTRF assay; format: functional, cell-based
[8] = biological target: Metabotropic glutamate receptor 1 (Homo sapiens, UniProt Q13255); assay: Agonist activity at recombinant human mGlu1 receptor expressed in hamster AV12 cells co-expressing human EAAT1/Galpha1s assessed as increase in Ca2+ flux by Fluo-3-AM dye based FLIPR assay; format: functional, cell-based
[9] = biological target: T3, Metabotropic glutamate receptor 4 (Homo sapiens, UniProt Q14833); assay: Antagonist activity at recombinant human mGlu4 receptor expressed in hamster AV12 cells co-expressing human EAAT1/Galpha1s assessed as inhibition of Ca2+ flux by Fluo-3-AM dye based FLIPR assay; format: functional, cell-based
T3 sequence (Q14833 whole entry): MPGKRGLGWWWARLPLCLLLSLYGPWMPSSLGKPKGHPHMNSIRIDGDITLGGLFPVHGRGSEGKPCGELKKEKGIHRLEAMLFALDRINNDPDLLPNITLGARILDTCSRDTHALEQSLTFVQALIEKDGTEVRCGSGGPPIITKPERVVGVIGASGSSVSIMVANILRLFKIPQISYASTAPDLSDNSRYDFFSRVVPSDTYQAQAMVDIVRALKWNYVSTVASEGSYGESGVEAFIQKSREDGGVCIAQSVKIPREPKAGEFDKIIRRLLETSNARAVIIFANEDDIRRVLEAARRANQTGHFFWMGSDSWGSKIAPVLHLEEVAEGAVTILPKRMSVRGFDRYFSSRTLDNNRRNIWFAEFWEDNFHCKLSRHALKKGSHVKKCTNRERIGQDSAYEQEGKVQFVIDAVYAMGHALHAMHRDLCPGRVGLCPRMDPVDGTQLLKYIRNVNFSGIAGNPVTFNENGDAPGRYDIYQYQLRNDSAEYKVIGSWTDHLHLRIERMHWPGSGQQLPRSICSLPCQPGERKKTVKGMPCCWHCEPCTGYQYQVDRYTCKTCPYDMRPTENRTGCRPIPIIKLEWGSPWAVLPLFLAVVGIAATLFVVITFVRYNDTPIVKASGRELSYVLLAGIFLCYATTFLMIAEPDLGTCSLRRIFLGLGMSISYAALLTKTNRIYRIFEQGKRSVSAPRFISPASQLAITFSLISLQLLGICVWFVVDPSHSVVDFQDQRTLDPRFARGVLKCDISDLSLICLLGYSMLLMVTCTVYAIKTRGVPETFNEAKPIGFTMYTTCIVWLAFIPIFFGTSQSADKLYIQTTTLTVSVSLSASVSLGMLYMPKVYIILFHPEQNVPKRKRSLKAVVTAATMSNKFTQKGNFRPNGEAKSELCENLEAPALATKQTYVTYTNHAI

[10] = biological target: T3, Metabotropic glutamate receptor 4; assay: Agonist activity at recombinant human mGlu4 receptor expressed in hamster AV12 cells co-expressing human EAAT1/Galpha1s assessed as increase in Ca2+ flux by Fluo-3-AM dye based FLIPR assay; format: functional, cell-based
[11] = biological target: Metabotropic glutamate receptor 5 (Homo sapiens, UniProt P41594); assay: Antagonist activity at recombinant human mGlu5 receptor expressed in hamster AV12 cells coexpressing human EAAT1/Galpha1s assessed as inhibition of Ca2+ flux by Fluo-3-AM dye based FLIPR assay; format: functional, cell-based
Metabotropic glutamate receptor 5, sequence (P41594 whole entry): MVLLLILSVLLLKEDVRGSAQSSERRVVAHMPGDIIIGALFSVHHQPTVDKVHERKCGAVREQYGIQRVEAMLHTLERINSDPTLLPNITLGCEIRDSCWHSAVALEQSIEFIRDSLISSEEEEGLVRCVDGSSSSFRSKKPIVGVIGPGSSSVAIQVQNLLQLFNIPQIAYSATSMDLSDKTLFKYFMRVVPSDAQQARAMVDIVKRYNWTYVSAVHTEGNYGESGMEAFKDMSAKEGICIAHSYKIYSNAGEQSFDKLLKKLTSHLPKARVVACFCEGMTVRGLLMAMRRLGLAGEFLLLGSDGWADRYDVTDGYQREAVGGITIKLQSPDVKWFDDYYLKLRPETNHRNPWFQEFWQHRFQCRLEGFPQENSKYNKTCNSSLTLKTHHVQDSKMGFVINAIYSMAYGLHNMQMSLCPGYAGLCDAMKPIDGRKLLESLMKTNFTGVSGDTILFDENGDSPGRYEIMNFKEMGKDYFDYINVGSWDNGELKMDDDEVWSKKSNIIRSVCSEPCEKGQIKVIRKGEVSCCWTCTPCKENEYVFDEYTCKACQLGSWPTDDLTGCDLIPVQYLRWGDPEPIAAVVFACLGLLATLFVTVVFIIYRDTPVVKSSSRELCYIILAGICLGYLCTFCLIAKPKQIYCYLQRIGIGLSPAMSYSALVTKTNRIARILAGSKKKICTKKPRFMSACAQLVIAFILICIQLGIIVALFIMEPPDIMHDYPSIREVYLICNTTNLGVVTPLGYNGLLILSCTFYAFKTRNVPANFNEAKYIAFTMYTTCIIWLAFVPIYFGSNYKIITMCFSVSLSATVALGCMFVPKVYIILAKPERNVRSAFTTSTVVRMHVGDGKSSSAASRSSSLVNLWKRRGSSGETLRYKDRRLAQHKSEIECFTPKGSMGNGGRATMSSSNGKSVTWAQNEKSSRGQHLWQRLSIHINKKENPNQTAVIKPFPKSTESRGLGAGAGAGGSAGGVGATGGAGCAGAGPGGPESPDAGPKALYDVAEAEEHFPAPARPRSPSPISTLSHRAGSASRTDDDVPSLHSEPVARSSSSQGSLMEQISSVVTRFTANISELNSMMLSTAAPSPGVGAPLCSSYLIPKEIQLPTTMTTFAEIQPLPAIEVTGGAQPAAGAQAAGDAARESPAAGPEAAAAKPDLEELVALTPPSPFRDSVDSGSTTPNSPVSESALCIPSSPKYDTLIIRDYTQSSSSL

[12] = biological target: Metabotropic glutamate receptor 6 (Homo sapiens, UniProt O15303); assay: Agonist activity at recombinant human mGlu6 receptor expressed in hamster AV12 cells co-expressing EAAT1 assessed as induction of forskolin-stimulated cAMP formation after 20 mins by HTRF assay; format: functional, cell-based
Metabotropic glutamate receptor 6, sequence (O15303 whole entry): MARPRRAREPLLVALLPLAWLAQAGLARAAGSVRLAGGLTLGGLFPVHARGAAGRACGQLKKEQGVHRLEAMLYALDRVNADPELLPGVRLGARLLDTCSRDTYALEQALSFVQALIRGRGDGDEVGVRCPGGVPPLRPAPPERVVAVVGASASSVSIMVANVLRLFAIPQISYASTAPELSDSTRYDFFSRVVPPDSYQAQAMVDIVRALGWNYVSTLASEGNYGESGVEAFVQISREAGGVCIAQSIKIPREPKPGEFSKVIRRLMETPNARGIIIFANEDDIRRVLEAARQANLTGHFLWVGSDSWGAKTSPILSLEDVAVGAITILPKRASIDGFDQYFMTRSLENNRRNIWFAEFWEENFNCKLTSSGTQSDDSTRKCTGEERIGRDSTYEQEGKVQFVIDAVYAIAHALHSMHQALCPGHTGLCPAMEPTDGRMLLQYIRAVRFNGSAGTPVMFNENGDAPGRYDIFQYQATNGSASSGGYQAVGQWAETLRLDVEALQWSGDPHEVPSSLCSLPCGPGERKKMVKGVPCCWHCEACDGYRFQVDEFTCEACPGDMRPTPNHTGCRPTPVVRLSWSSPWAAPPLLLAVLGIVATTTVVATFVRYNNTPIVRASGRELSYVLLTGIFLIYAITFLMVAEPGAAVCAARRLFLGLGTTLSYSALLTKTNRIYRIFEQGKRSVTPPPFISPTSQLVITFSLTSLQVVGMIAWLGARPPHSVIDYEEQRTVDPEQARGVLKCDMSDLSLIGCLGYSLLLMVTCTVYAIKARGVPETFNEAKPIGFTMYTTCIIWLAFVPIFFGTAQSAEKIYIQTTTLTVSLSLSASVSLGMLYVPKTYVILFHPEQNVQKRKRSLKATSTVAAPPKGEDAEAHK

[13] = biological target: T4, Metabotropic glutamate receptor 7 (Homo sapiens, UniProt Q14831); assay: Antagonist activity at recombinant human mGlu7 receptor expressed in hamster AV12 cells co-expressing human EAAT1/Galpha1s assessed as inhibition of Ca2+ flux by Fluo-3-AM dye based FLIPR assay; format: functional, cell-based
T4 sequence (Q14831 whole entry): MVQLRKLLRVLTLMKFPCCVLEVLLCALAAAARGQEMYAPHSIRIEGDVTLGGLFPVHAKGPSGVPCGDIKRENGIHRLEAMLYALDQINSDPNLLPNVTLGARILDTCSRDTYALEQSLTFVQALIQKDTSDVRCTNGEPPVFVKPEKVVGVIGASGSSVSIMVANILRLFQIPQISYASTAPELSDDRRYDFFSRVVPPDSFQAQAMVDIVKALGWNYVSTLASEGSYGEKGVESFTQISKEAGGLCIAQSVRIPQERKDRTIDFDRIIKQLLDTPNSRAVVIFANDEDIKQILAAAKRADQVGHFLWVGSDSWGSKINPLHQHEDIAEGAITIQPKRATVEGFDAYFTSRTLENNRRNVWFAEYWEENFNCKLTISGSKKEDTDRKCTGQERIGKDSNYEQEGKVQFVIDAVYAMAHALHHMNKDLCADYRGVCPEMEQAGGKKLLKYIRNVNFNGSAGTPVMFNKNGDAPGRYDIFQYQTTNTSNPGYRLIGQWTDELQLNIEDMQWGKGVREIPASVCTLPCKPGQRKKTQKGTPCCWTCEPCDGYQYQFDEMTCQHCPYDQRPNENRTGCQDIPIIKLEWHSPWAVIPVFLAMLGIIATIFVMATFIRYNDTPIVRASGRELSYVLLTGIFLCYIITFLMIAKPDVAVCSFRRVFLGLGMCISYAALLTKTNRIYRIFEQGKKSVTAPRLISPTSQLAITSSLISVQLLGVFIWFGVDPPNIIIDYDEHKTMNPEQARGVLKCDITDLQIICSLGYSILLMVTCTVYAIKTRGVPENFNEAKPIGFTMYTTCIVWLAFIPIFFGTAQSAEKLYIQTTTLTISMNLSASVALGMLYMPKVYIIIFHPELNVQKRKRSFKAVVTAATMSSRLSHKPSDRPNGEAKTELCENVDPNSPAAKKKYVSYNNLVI

[14] = biological target: T4, Metabotropic glutamate receptor 7; assay: Agonist activity at recombinant human mGlu7 receptor expressed in hamster AV12 cells co-expressing human EAAT1/Galpha1s assessed as increase in Ca2+ flux by Fluo-3-AM dye based FLIPR assay; format: functional, cell-based
[15] = biological target: Metabotropic glutamate receptor 8 (Homo sapiens, UniProt O00222); assay: Agonist activity at recombinant human mGlu8 receptor expressed in hamster AV12 cells co-expressing human EAAT1 assessed as induction of forskolin-stimulated cAMP formation after 20 mins by HTRF assay; format: functional, cell-based
hERG (KCNH2) = hERG (KCNH2) (Homo sapiens, UniProt Q12809); assay: Displacement of [3H]-Astemizole from human ERG at 100 uM by membrane binding assay; details: membranes with human ERG, probe [3H]-Astemizole
ABCB1 (P-gp) = ABCB1 (P-gp) (Homo sapiens, UniProt P08183); assay: Inhibition of human ABCB1 expressed in MDCK cells at 5 to 25 uM relative to control; format: ADME, cell-based; details: MDCK-MDR1
[16] = Drug metabolism in rat microsomes at 4 uM after 30 mins; format: ADME, Microsome; details: read-out: Drug metabolism
[17] = Drug metabolism in dog microsomes at 4 uM after 30 mins; format: ADME, Canis lupus familiaris, Microsome; details: read-out: Drug metabolism
CYP3A4 = CYP3A4 (Homo sapiens, UniProt P08684); assay: Inhibition of human CYP3A4 at 10 uM; format: ADME
CYP2C9 = CYP2C9 (Homo sapiens, UniProt P11712); assay: Inhibition of human CYP2C9 at 10 uM; format: ADME
CYP2D6 = CYP2D6 (Homo sapiens, UniProt P10635); assay: Inhibition of human CYP2D6 at 10 uM; format: ADME
[18] = biological target: Voltage-gated inwardly rectifying potassium channel KCNH2 (Homo sapiens, UniProt Q12809); assay: Displacement of [3H]-Astemizole from human ERG by membrane binding assay
Voltage-gated inwardly rectifying potassium channel KCNH2, sequence (Q12809 whole entry): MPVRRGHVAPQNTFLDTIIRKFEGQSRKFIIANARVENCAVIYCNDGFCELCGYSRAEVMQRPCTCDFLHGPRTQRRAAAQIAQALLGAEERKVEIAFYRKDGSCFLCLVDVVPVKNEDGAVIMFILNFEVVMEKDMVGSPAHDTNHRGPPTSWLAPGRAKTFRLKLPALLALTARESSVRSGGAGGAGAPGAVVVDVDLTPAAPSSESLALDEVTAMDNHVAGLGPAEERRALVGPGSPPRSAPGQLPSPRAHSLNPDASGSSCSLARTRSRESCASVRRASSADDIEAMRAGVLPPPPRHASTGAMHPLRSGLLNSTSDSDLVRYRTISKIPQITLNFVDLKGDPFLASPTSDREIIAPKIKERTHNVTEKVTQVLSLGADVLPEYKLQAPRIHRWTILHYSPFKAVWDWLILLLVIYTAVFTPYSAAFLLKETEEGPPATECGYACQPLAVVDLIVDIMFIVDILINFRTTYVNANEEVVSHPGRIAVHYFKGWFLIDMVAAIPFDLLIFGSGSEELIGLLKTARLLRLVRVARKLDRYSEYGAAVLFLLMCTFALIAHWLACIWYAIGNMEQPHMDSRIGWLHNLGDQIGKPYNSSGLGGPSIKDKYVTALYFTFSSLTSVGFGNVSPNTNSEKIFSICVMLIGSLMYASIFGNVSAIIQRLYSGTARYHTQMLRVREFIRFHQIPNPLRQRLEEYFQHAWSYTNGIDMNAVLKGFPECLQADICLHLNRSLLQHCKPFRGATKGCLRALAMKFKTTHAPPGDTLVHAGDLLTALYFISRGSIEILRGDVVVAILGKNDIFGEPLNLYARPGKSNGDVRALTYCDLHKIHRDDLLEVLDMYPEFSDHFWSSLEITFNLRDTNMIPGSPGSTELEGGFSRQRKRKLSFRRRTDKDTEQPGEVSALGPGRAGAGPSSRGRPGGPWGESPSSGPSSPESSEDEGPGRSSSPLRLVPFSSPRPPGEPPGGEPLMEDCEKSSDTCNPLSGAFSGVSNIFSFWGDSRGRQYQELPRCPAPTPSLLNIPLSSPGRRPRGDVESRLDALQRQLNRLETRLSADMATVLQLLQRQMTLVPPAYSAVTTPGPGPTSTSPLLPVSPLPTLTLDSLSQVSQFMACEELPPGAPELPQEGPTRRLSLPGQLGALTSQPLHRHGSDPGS

[19] = Unbound fraction in rat plasma at 1 uM; format: ADME, cell-free
[20] = Unbound fraction in monkey plasma at 1 uM; format: ADME, cell-free, Macaca mulatta; details: rhesus monkey
[21] = AUC (0 to 24 hrs) in rat at 1 mg/kg, iv; format: ADME, organism-based; design: dose 1 mg/kg, time < 24 hr, route intravenous; details: in vivo
[22] = Cmax in rat at 1 mg/kg, iv; format: ADME, organism-based; design: dose 1 mg/kg, route intravenous; details: in vivo
[23] = Half life in rat at 1 mg/kg, iv; format: ADME, organism-based; details: in vivo
[24] = AUC (0 to 24 hrs) in rat at 5 mg/kg, po; format: ADME, organism-based; design: time < 24 hr, dose 5 mg/kg, route oral; details: in vivo
[25] = Cmax in rat at 5 mg/kg, po; format: ADME, organism-based; design: dose 5 mg/kg, route oral; details: in vivo
[26] = Half life in rat at 5 mg/kg, po; format: ADME, organism-based; details: in vivo
[27] = Oral bioavailability in rat at 5 mg/kg; format: ADME, organism-based; details: in vivo
[28] = Antidepressant activity in ip dosed NIH Swiss Webster mouse assessed as reduction in immobility time administered 30 mins prior to evaluation measured on the last 4 mins of the 6 mins observation time by forced swim test; format: functional, organism-based
[29] = Plasma concentration in NIH Swiss Webster mouse at 1 mg/kg, ip at 30 mins; format: ADME, organism-based
[30] = Drug uptake in NIH Swiss Webster mouse brain at 1 mg/kg, ip at 30 mins; format: ADME, organism-based; details: read-out: Drug uptake
[31] = Plasma concentration in NIH Swiss Webster mouse at 3 mg/kg, ip at 30 mins; format: ADME, organism-based
[32] = Plasma concentration in NIH Swiss Webster mouse at 0.3 mg/kg, ip at 30 mins; format: ADME, organism-based
[33] = Antidepressant activity in ip dosed rat EEG model assessed as accumulated wake time measured over 7 hrs relative to control; format: functional, organism-based
[34] = Antidepressant activity in NIH Swiss Webster mouse assessed as immobility time at 0.3 mg/kg, ip administered 30 mins prior to test measured during last 4 mins of the 6 mins observation time by forced swim test (reference value: 142 sec); format: functional, organism-based
[35] = Antidepressant activity in NIH Swiss Webster mouse assessed as immobility time at 1 mg/kg, ip administered 30 mins prior to test measured during last 4 mins of the 6 mins observation time by forced swim test (reference value: 142 sec); format: functional, organism-based
[36] = Antidepressant activity in rat assessed as increase in wakefulness at 3 to 10 mg/kg, ip

fraction unbound [1]: 0.56
half-life [2]: 4.48 h
Tmax [3]: 0.38 h
Ki [4]: 0.0201 µM
inhibition [5]: Active
inhibition [6]: Active
EC50 [7]: > 25 µM
EC50 [8]: > 25 µM
IC50 [9]: > 12.5 µM
EC50 [10]: > 25 µM
IC50 [11]: > 12.5 µM
EC50 [12]: > 12.5 µM
IC50 [13]: 10.5 µM
EC50 [14]: > 25 µM
EC50 [15]: > 50 µM
inhibition (ABCB1 (P-gp)): < 1%
metabolised at 0.5 h, 4 µM [16]: < 20%
metabolised at 0.5 h, 4 µM [17]: < 20%
inhibition at 10 µM (CYP3A4): < 5%
inhibition at 10 µM (CYP2C9): < 5%
inhibition at 10 µM (CYP2D6): < 5%
fraction unbound at 1 µM [19]: > 0.4
fraction unbound at 1 µM [20]: > 0.4
AUC [21]: 32.165 µM·h
Cmax [22]: 33.9 µM
half-life [23]: 4.61 h
AUC [24]: 1.783 µM·h
Cmax [25]: 0.262 µM
half-life [26]: 5.49 h
F [27]: 6%
concentration at 0.5 h [29]: 4.81 µM
concentration at 0.5 h [30]: 0.072 µM
concentration at 0.5 h [31]: 16.5 µM
concentration at 0.5 h [32]: 1.29 µM
SMILES: N[C@]1(C(=O)O)[C@@H]2[C@@H](C(=O)O)[C@@H]2[C@H](O)[C@H]1OCc1ccc(Cl)c(Cl)c1
inhibition at 100 µM (hERG (KCNH2)): 13%
Ki [18]: > 100 µM
ED60 [28]: 0.72 mg/kg
MED [28]: 1 mg/kg
TIME [33]: 2.18 h
TIME [34]: 0.0394 h
TIME [35]: 0.0272 h
Activity [36]: Active
